From patent US20060052344A1, “Heterocyclic silicon compounds and their use in the treatment of diseases or conditions associated with gnrh (gonadotropin-releasing hormone)” (priority 2002, published 2006)
Where “and” joins values, the source holds several entries; their conditions need not be identical. Equal entries are not always repeated.

melting point: 139 °C and 139 to 140 °C
SMILES: COc1cc(OC)c(NC(=O)c2ccc(Cc3cc4c(cc3C)[Si](C)(C)CC[Si]4(C)C)o2)c(OC)c1
